How the values were obtained:
[1] = tested on: C57BL/6 mice; experiment: Acute respiratory distress syndrome induced by CLP: lung histology, lung injury score, wet-to-dry weight ratio; assay type: in vivo; settings: treated at 6 and 16 hours after CLP, lungs harvested at 18 hours
Procedure: CLP induces pulmonary edema due to increased inflammation and disruption of the vascular barrier, resulting in acute respiratory distress syndrome (ARDS). To determine the effect on ARDS, the compound of formula (1a-1) was treated at 6 and 16 hours after CLP treatment in the same manner as in Experimental Example 7 above, the lungs of mice were harvested at 18 hours for histological analysis, and the wet-to-dry weight ratio of the lungs was obtained. For comparison, mice without CLP treatment served as a control group.
For histologic analysis, the harvested lungs were fixed in 10% paraformaldehyde, infiltrated with paraffin, sectioned into 5 µm-thick tissues, and then de-paraffinized with xylene. Sectioned tissues were mounted on slides, stained with H&E, and observed under an optical microscope. In addition, the lung tissue damage was evaluated by histological score to obtain the lung injury score (LIS) for each group.
To calculate the wet-to-dry weight ratio, lung organs were harvested 18 hours after CLP treatment, and the wet weight was measured immediately after harvesting, and the dry weight was measured after drying in an oven at 60°C for 48 hours to calculate the wet-to-dry weight ratio. The wet-to-dry weight ratio is used as an indicator of organ edema formation.

[2] = tested on: SIRT1; experiment: SIRT1 expression in HUVECs by western blot; assay type: cell-based, human; settings: 24 hours
Procedure: To determine the increase in SIRT1 expression by the compound of formula (1a-1) prepared in Example 1 above in human umbilical vein endothelial cells (HUVECs), HUVECs were seeded at 5 × 10^5/4 ml in a 60 mm cell culture dish using ECBM2 medium (Promocell) and stabilized for 12 hours in an incubator maintained at 37°C and 5% CO2, respectively.
The cells were then treated with 10 nM, 100 nM and 1000 nM of the compound of formula (1a-1) prepared in Example 1 above, respectively, and incubated for another 24 hours, and then SIRT1 expression was determined by western blot.

[3] = tested on: SIRT1; experiment: SIRT1 expression in mouse vascular cells; assay type: cell-based
[4] = tested on: TNF-α; experiment: Serum TNF-α after CLP treatment, ELISA; assay type: in vivo, mouse; settings: treated at 6 and 16 hours after CLP, serum at 18 hours
Procedure: (§1) After CLP treatment, the inflammatory cytokines TNF-α and IL-6 were analyzed by ELISA.
(§2) Specifically, after treating the compound of formula (1a-1) at 6 and 16 hours after CLP treatment, mouse blood was collected at 18 hours and allowed to stand at room temperature for 1 hour, then centrifuged at 3000 rpm for 10 minutes to obtain serum to analyze the amount of TNF-α and IL-6.

[5] = tested on: amyloid beta monomer (monomeric Aβ, mAβ); experiment: mAβ expression in mouse brain of AD-induced animal model, fluorescence microscopy; assay type: in vivo, mice; settings: 1 mg/kg intraperitoneally once every 3 days for 2 weeks; brain sections at 1 week and 4 weeks after drug administration
Procedure: (§3) To determine the therapeutic effect on Alzheimer's Disease (AD), the effects on amyloid beta monomer (monomeric Aβ, mAβ) and Tau protein, which are biomarkers of AD, were analyzed in an AD-induced animal model.
(§4) APP/PS/Tau transgenic mice were used as an AD-induced animal model. The compound of formula (1a-1) was administered intraperitoneally once every 3 days at a concentration of 1 mg/kg to 12-week-old transgenic mice for 2 weeks, and the expression of mAβ and Tau proteins in the mouse brain was measured after 1 and 4 weeks. After anesthetizing the mouse, the cervical region was incised with a dissecting tool, and then the occipital region was incised to remove both sides of the skull. The brain was washed with phosphate buffered saline (PBS) and fixed with 4% paraformaldehyde (Sigma, St Louis, MO, USA) for 12 hours at 4°C. These were cut to a thickness of approximately 10 µm using a vibratome, and hippocampus and cortex sections were collected and placed in 24 wells. PBS was added to the wells containing the fixed tissue sections, and fluorescent nanoparticles (QD565, red fluorescence) conjugated with anti-amyloid antibodies and anti-Tau antibodies (Santa Cruz, USA) were added to each 2 µM, and reacted at 4°C for 12 hours. The expression of mAβ and Tau was confirmed by fluorescence microscopy.

[6] = tested on: IL-6; experiment: Serum IL-6 after CLP treatment, ELISA; assay type: in vivo, mouse; settings: treated at 6 and 16 hours after CLP, serum at 18 hours
Procedure: as §1, §2

[7] = tested on: C57BL/6 mice; experiment: Survival in sepsis induced by cecal ligation and puncture (CLP); assay type: in vivo; settings: 100 ng/mouse (5 µg/kg) intravenously at 6 and 16 hours after CLP
Procedure: C57BL/6 mice aged 7-8 weeks were purchased from Jabio (Suwon, Gyeonggi-do) and sepsis was induced by cecal ligation and puncture (CLP).
Specifically, after anesthesia using 150 mg/kg of ketamine and 17.5 mg/kg of rompun, an abdominal incision of 1-2 cm was made to expose the cecum to induce sepsis. The cecum was ligated with 6-0 silk sutures at the distal end of the ileocecal valve, and a puncture was made with an 18-gauge needle. The perforated cecum was gently squeezed to push out 1-2 cm of feces, and the cecum was then retracted back into the abdominal cavity. The abdomen was then closed and pre-warmed normal saline (2.5 mL/100 g body weight) was injected into the mouse abdominal cavity immediately after the procedure. 6 and 16 hours after CLP treatment, the compound of formula (1a-1) was dissolved in phosphate buffered saline (PBS) and injected intravenously at 100 ng/mouse (5 µg/kg), and survival was examined for 10 days. […] In addition, as a drug-negative control, survival was examined in mice that received only PBS after CLP treatment.
For comparison, we also examined the survival of a control group treated with fingolimod (FTY720), a known S1P modulator, instead of the compound of formula (1a-1) under the same conditions.

[8] = tested on: tyrosine hydroxylase (TH); experiment: TH expression in rotenone-treated differentiated SH-SY5Y dopaminergic neurons, western blot; assay type: cell-based, human
Procedure: To analyze the effect on the expression of tyrosine hydroxylase (TH) and α-synuclein as neuron-specific proteins, western blot was performed.
SH-SY5Y cell line was treated with retinoic acid and 12-O-tetradecanoylphorbol-13-acetate (TPA) to induce differentiation into TH-secreting neurons for 6 days.
Differentiated dopaminergic neurons were lysed in PRO-PREP (Intronbio), a cell lysis solution containing protease inhibitor cocktail (Gendepot), and electrophoresed in 10% SDS polyacrylamide gels at 20 µg/well. Transfer was performed using PVDF (Merck millipore) as a membrane, and tyrosine hydroxylase antibody, α-synuclein antibody (Cell signaling), and β-actin antibody (Santa Cruz) were used for reaction for more than 2 hours. Protein expression was detected by staining with ECL substrate (Biorad) for development and graphed using the image J program.

[9] = tested on: Tau protein; experiment: Tau expression in mouse brain of AD-induced animal model, fluorescence microscopy; assay type: in vivo, mice; settings: 1 mg/kg intraperitoneally once every 3 days for 2 weeks; brain sections at 1 week and 4 weeks after drug administration
Procedure: as §3, §4

CCCCCCCCCCCCCC[C@H]1OP(=O)(O)O[C@H]1[C@@H](N)CO.Cl [formula (1a-1), (4S,5R)-4-((S)-1-amino-2-hydroxyethyl)-2-hydroxy-5-tetradecyl-1,3,2-dioxaphosphoran-2-oxide hydrochloride]
lung injury score [1]: almost restores the lung injury score to normal
lung tissue (optical microscope, H&E) [1]: almost restored to normal
wet-to-dry weight ratio of the lung [1]: restores the wet-to-dry weight ratio of the lung to normal
expression of SIRT1 ([2]; 10 nM): increases
EC50 ([2]; read-out: concentration (EC50) that increased the expression of SIRT1 by 50%): ~10 nM
concentration of maximum expression (SIRT1) [3]: 100 ng/mL
amount of inflammatory cytokine TNF-α [4]: significantly decreased
red fluorescence for mAβ [5]: negligible
amount of inflammatory cytokine IL-6 [6]: significantly decreased
deaths after 10 days [7]: no deaths
survival ([7]; for 10 days): more than 80%
effectiveness on TH and α-synuclein expression compared with control drug [8]: more effective than resveratrol
expression of TH decreased by rotenone ([8]; differentiated dopaminergic neurons treated with rotenone): restored
red fluorescence for Tau [9]: negligible
